Structures are written as SMILES.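 Five compound concentrations were applied to cells in 96-well plates for 48 hours; endpoints were derived by simple linear interpolation of the resulting dose-response curve. GI50 = concentration required for 50% inhibition of growth.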 Calls of active or inactive are those of the source. No stated cut-off is given here; in the data, active = GI50 up to about 1.1 µM and inactive = higher.

Test systems include CAKI-1; COLO 205; EKVX; HCC 2998; HCT-116; HOP-92; NCI-H23; NCI-H460; NCI/ADR-RES; OVCAR-8; SF-539; SNB-75; T47D; UO-31; ACHN; LOX IMVI; MDA-MB-435; NCI-H226; NCI-H522; BT-549.
Holding throughout (experiment): NCI tumour cell line growth inhibition, 48 h

With `CC(=O)c1ccc(N2CCN(C3=C(Cl)C(=O)c4c(O)ccc(O)c4C3=O)CC2)cc1`, the GI50 in the test on CAKI-1 is 4.89 µM (inactive); in the test on COLO 205, 2.67 µM (inactive); in the test with EKVX, 18.7 µM (inactive); in the test with HCC 2998 it was 15.6 µM (inactive); in the test on HCT-116 it was 3.5 µM (inactive); in the test with HOP-92, 2.11 µM (inactive). Moreover, the GI50 was 2.92 µM (inactive) in the test with NCI-H23; 16.8 µM (inactive) in the test on NCI-H460; 9.1 µM (inactive) in the test on NCI/ADR-RES; 3.86 µM (inactive) in the test with OVCAR-8; 13.8 µM (inactive) in the test with SF-539; 12.7 µM (inactive) in the test on SNB-75. Further, the GI50 is 2.91 µM (inactive) in the test on T47D and 10.9 µM (inactive) in the test with UO-31.

In the case of `CN(C)CCNC(=O)Cn1ccc(=O)c2ccc([N+](=O)[O-])cc21`, the GI50 was > 100 µM (inactive) in the test with ACHN; > 100 µM (inactive) in the test with CAKI-1; 47.1 µM (inactive) with COLO 205; > 100 µM (inactive) with EKVX; > 100 µM (inactive) with HCC 2998; > 100 µM (inactive) with HCT-116. In addition, the GI50 in the test with HOP-92, with LOX IMVI, in the test on MDA-MB-435, in the test with NCI-H226, in the test with NCI-H23 and in the test on NCI-H460 was > 100 µM (inactive) in each case. Besides, the GI50 in the test with NCI-H522, in the test with NCI/ADR-RES, in the test with SF-539, with T47D and with UO-31 was > 100 µM (inactive) throughout.

Take `CCC/C(Cl)=N\OC(=O)Nc1cccc(C(F)(F)F)c1`: the GI50 with ACHN is 16.3 µM (inactive); in the test on BT-549, 10.6 µM (inactive); in the test on CAKI-1 it was 18.1 µM (inactive); with COLO 205 it was 3.05 µM (inactive); with EKVX, 16.6 µM (inactive); in the test with HCC 2998 it was 18.2 µM (inactive). The GI50 in the test on HCT-116 is 18.2 µM (inactive); with LOX IMVI, 6.84 µM (inactive); with NCI-H226, 20.5 µM (inactive); in the test with NCI-H23 it was 20.7 µM (inactive); with NCI-H460, 19.4 µM (inactive); with NCI-H522, 1.96 µM (inactive). The GI50 was 20.6 µM (inactive) in the test with NCI/ADR-RES; 17.9 µM (inactive) with OVCAR-8; 18.7 µM (inactive) in the test with SF-539; 10.4 µM (inactive) in the test with SNB-75; 23.9 µM (inactive) in the test with T47D; 19.6 µM (inactive) with UO-31.

With `Cn1ccnc1CC(C)(O)c1ccccc1` (centres undefined), the GI50 in the test with ACHN, with BT-549, in the test on CAKI-1, with COLO 205, in the test with EKVX and in the test with HCC 2998 was > 100 µM (inactive) throughout. In addition, the GI50 in the test with HCT-116, in the test with HOP-92, in the test on LOX IMVI, in the test on MDA-MB-435, in the test with NCI-H226 and with NCI-H23 was > 100 µM (inactive) in each case. In addition, the GI50 in the test on NCI-H460, in the test with NCI-H522, with NCI/ADR-RES, in the test on OVCAR-8, in the test with SF-539 and in the test with SNB-75 was > 100 µM (inactive) each time. In the test with UO-31, the GI50 is > 100 µM (inactive).

For `O/N=C1/CCCc2nonc21`, the GI50 in the test with ACHN, in the test on CAKI-1, in the test on COLO 205, in the test with EKVX, in the test on HCC 2998 and in the test with HCT-116 was > 100 µM (inactive) each time. The GI50 in the test with HOP-92, with LOX IMVI, with MDA-MB-435, in the test with NCI-H226, in the test with NCI-H23 and in the test on NCI-H460 was > 100 µM (inactive) throughout. For the same compound, the GI50 with NCI/ADR-RES, with OVCAR-8, in the test with SF-539, with SNB-75, in the test on T47D and with UO-31 was > 100 µM (inactive) each time.

With `COc1ccccc1N1CCN(CCCNC(=O)c2cc(Cl)c(N)c(Cl)c2)CC1`, the GI50 in the test with ACHN was 55.2 µM (inactive); in the test with COLO 205, > 10 µM (inactive); in the test with EKVX it was > 100 µM (inactive); with HCC 2998 it was 21.5 µM (inactive); with HCT-116, 31 µM (inactive); in the test on HOP-92, 4.36 µM (inactive). Further, the GI50 with MDA-MB-435 is 40.2 µM (inactive); in the test on NCI-H226 it was 28.4 µM (inactive); in the test with NCI-H23 it was 49.7 µM (inactive); with NCI-H460, 23.3 µM (inactive); with NCI/ADR-RES it was 36.8 µM (inactive); with OVCAR-8 it was 47.5 µM (inactive). The GI50 in the test on SF-539 was 28.6 µM (inactive); in the test with SNB-75 it was 59.3 µM (inactive); in the test on T47D, 42.9 µM (inactive); in the test on UO-31 it was 21.9 µM (inactive).

As for `CCCc1c(OC)c(=O)c2c(O)cc(OC)c3c4c(OC)cc(O)c5c(=O)c(OC)c(CCC)c(c1c23)c54`, the GI50 was 4.51 µM (inactive) with ACHN; 2.74 µM (inactive) in the test with BT-549; 4.17 µM (inactive) in the test on CAKI-1; 4.35 µM (inactive) in the test on COLO 205; 2.58 µM (inactive) in the test with EKVX; 14.7 µM (inactive) with HCC 2998. Moreover, the GI50 in the test with HCT-116 is 2.63 µM (inactive); in the test with HOP-92, 5.69 µM (inactive); in the test with LOX IMVI it was 1.63 µM (inactive); with MDA-MB-435, 1.85 µM (inactive); in the test with NCI-H226, 3.46 µM (inactive); in the test on NCI-H23 it was 7.94 µM (inactive). Further, the GI50 in the test on NCI-H460 is 3.16 µM (inactive); in the test with NCI-H522, 1.53 µM (inactive); in the test with NCI/ADR-RES, 5.26 µM (inactive); in the test on OVCAR-8, 0.944 µM (active); in the test on SF-539, 1.49 µM (inactive); in the test with SNB-75, 1.59 µM (inactive). Moreover, the GI50 in the test with UO-31 is 2.62 µM (inactive).

For `CCN(CC)c1c(-c2c(OC(C)C)c(=O)c2=O)c(=O)n2ccsc2c1OC(C)=O`, the GI50 in the test on ACHN was > 100 µM (inactive); in the test with BT-549, > 100 µM (inactive); with CAKI-1, > 100 µM (inactive); in the test on COLO 205 it was > 100 µM (inactive); with EKVX it was 71.9 µM (inactive); in the test on HCC 2998 it was > 100 µM (inactive). Further, the GI50 in the test on HCT-116, with HOP-92, in the test on LOX IMVI, in the test with MDA-MB-435, with NCI-H226 and in the test on NCI-H23 was > 100 µM (inactive) each time. Moreover, the GI50 is > 100 µM (inactive) with NCI-H460; 17.5 µM (inactive) with NCI-H522; > 100 µM (inactive) in the test with NCI/ADR-RES; > 100 µM (inactive) with OVCAR-8; 5.13 µM (inactive) in the test on SNB-75; > 100 µM (inactive) in the test with UO-31.

For the origin of these results see ChEMBL document CHEMBL1201862, “PubChem BioAssay data set” (2004).
